The record followed here is PubChem BioAssay (NCI).

Common to all, as to experiment: NCI-60 cell line screen, 48 h
Assay [1] has as its system NCI/ADR-RES ovarian.
Assay [2] relates to U251 CNS.
The test system of assay [3] is SK-MEL-2 melanoma.
The test system of assay [4] is MDA-N.
Assay [5] has as its system SF-268 CNS.
For assay [6], the system named is UACC-257 melanoma.
For assay [7], the system named is SF-295 CNS.
Assay [8] has as its system HS 578T breast.
The subject of assay [9] is CCRF-CEM leukemia.
The test system of assay [10] is ACHN renal.
Assay [11] has as its system HCT-15 colon.
For assay [12], the system named is TK-10 renal.
For assay [13], the system named is SK-MEL-28 melanoma.
The test system of assay [14] is HCC-2998 colon.
The test system of assay [15] is MCF7 breast.
The subject of assay [16] is UACC-62 melanoma.
In assay [17] the test system is SF-539 CNS.
Assay [18] relates to OVCAR-3 ovarian.

The structures appear in SMILES notation.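 Step 1: Grow cells in 96-well plates. Step 2: Expose to compound for 48 hours at 5 concentrations. Step 3: Interpolate endpoints linearly; if unreached, use highest concentration. The concentration for full growth arrest is given as TGI.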 Where a SMILES comes first, the peptide text is derived from it. The star is where a group is joined. Ethyl(2-NMe3+) = C[N+](C)(C)CC*; Boc = CC(C)(C)OC(=O)*

For the compound `COc1cccc(N2C(=O)/C(=C\c3ccccc3)SC2c2cc(OC)c(OC)c(OC)c2)c1` (configuration not stated), the TGI was above 100 µM in [1]; above 100 µM in assay [2]; above 100 µM in [3]; 40.5 µM in assay [4]; above 100 µM in assay [5]; above 100 µM in assay [6]. Moreover, the TGI in assay [7], in assay [8], in [9], in assay [10], in assay [11] and in assay [12] was above 100 µM each time. Moreover, the TGI in [13], in [14], in assay [15] and in assay [16] was above 100 µM in each case.
For `Nc1[nH]c(=S)c2c(N)n[nH]c2c1C(=O)Nc1ccccc1`, the TGI in assay [1], in [2], in [3], in assay [4], in assay [5] and in [6] was above 100 µM throughout. The TGI in assay [8], in [17], in assay [11], in assay [12], in assay [18] and in assay [13] was above 100 µM throughout. Also, the TGI in assay [14], in [15] and in assay [16] was above 100 µM throughout.
With `O=c1n(-c2ccccc2)c(=O)n2n1C1Cc3ccccc3C12` (configuration not stated), the TGI in assay [1], in assay [2], in assay [3], in [4], in [5] and in assay [6] was above 100 µM in each case. For the same compound, the TGI in [7], in [8], in assay [17], in assay [9], in assay [10] and in assay [11] was above 100 µM each time. Besides, the TGI in assay [12], in assay [18], in [13], in [15] and in assay [16] was above 100 µM throughout.
On to `CC1=C(C)C1[N+](=O)[O-]`, for which the TGI in assay [1], in [2], in [4], in assay [5], in [6] and in [7] was above 100 µM each time. The TGI in assay [8], in assay [17], in [9], in [10], in [11] and in assay [12] was above 100 µM in each case. For the same compound, the TGI in assay [18], in [13], in assay [14], in assay [15] and in assay [16] was above 100 µM each time.
Consider `N#Cc1cc(-c2nc3c(F)cccc3s2)ccc1N`, for which the TGI in assay [1], in assay [2], in assay [4], in assay [5], in assay [6] and in assay [7] was above 100 µM throughout. Further, the TGI in [8], in assay [17], in [9], in assay [10], in assay [11] and in assay [12] was above 100 µM in each case. The TGI in assay [18] is above 100 µM; in [15] it was 4.06 µM; in assay [16], above 100 µM.
Take `CN(N)/N=N/c1nc[nH]c1[N+](=O)[O-]`: the TGI in [1], in [2], in assay [3], in assay [4], in [5] and in assay [6] was above 100 µM throughout. In addition, the TGI is above 100 µM in assay [7]; above 100 µM in [8]; above 100 µM in assay [17]; 33 µM in assay [9]; above 100 µM in [10]; above 100 µM in [11]. In addition, the TGI in [12], in assay [18], in [13], in assay [14] and in assay [16] was above 100 µM in each case.
On to `CC(NC(=O)C(Cc1ccc(OCC[N+](C)(C)C)cc1)NC(=O)OC(C)(C)C)C(=O)NC(Cc1ccccc1)C(=O)NCC(N)=O` (configuration not stated) (Boc-Y(Ethyl(2-NMe3+))AFG-NH2; configuration not given here), for which the TGI is above 100 µM in assay [1]; 12.8 µM in assay [2]; 25.2 µM in assay [3]; above 100 µM in [4]; 25.7 µM in assay [5]; above 100 µM in assay [6]. Also, the TGI in assay [7] is 17.4 µM; in assay [8] it was 83 µM; in [17], 25.5 µM; in assay [10], above 100 µM; in assay [11], above 100 µM; in assay [12], 24 µM. Moreover, the TGI is 60.3 µM in assay [18]; above 100 µM in assay [13]; 48.8 µM in [14]; above 100 µM in assay [15]; 71.7 µM in [16].
`CCN(CC)c1c(-c2c(N(CC)CC)c(OC(C)=O)c3sccn3c2=O)c(=O)n2ccsc2c1OC(C)=O`: the TGI in [1], in assay [2], in assay [3], in assay [4], in assay [5] and in [6] was above 100 µM in each case. In addition, the TGI in assay [7], in assay [8], in [17], in assay [9], in [10] and in assay [11] was above 100 µM in each case. Moreover, the TGI in assay [12], in assay [18], in assay [13], in assay [14] and in assay [16] was above 100 µM each time.
Take `CC(C)(C)c1ccc(-n2c3nc(=O)n(-c4ccccc4CO)c(=O)c-3cc3ccccc32)cc1`: the TGI was above 100 µM in assay [1]; above 100 µM in assay [2]; 62.9 µM in [4]; above 100 µM in assay [5]; above 100 µM in assay [6]; above 100 µM in [7]. Further, the TGI is above 100 µM in assay [8]; 88.1 µM in [17]; 66.3 µM in assay [9]; above 100 µM in assay [10]; above 100 µM in assay [11]; above 100 µM in assay [12]. Moreover, the TGI in [13], in [14], in assay [15] and in assay [16] was above 100 µM throughout.
As to `S=C1CSc2c(ccc3ccccc23)N1`, the TGI in assay [1], in assay [2], in assay [4], in [5], in assay [6] and in assay [7] was above 100 µM each time. Further, the TGI in assay [8], in [9], in assay [10], in [11], in assay [12] and in assay [18] was above 100 µM each time. Further, the TGI in assay [13], in assay [15] and in assay [16] was above 100 µM throughout.
On to `Cc1ccc(C2SC(N)=Nc3c2c(C)nn3C(=O)c2ccccc2O)cc1` (configuration not stated), for which the TGI in assay [1], in assay [2], in assay [3], in assay [4], in assay [5] and in assay [6] was above 10 µM in each case. Also, the TGI is 5.27 µM in [8]; above 10 µM in assay [17]; above 10 µM in assay [9]; above 10 µM in assay [10]; above 10 µM in assay [11]; above 10 µM in assay [12]. The TGI is above 10 µM in [18], above 10 µM in assay [13], above 10 µM in assay [15] and 4.27 µM in assay [16].
Turning to `CN1C(=O)C(c2c[nH]c3ccccc23)N(C)C(=O)C1c1c[nH]c2ccccc12` (configuration not stated), the TGI in assay [1], in assay [2], in assay [4], in assay [5], in assay [6] and in assay [7] was above 100 µM in each case. Also, the TGI in assay [8], in [17], in assay [9], in [10], in [11] and in assay [12] was above 100 µM throughout. Also, the TGI in assay [18], in assay [13], in [14], in [15] and in [16] was above 100 µM in each case.
For `Oc1cc(-c2ccc(Cl)cc2)cn2c1nc1ccccc12`, the TGI in assay [1], in [2], in assay [4], in [5], in assay [6] and in assay [7] was above 100 µM in each case. Also, the TGI in assay [8], in assay [17], in assay [11], in assay [12], in [18] and in [13] was above 100 µM each time. Further, the TGI in assay [15] and in assay [16] was above 100 µM each time.
For `C=CCc1ccccc1CC1(OCC)OC(=O)c2ccccc21` (configuration not stated), the TGI in assay [2] is above 100 µM; in assay [3], above 100 µM; in assay [4], 71.8 µM; in [5] it was above 100 µM; in assay [6], above 100 µM; in assay [7], above 100 µM. The TGI in assay [8], in assay [17], in assay [10], in assay [11], in [12] and in assay [18] was above 100 µM in each case. The TGI in [13], in [14], in assay [15] and in assay [16] was above 100 µM in each case.
In the case of `COc1ccc(/C=C2\N=C(SC)N(CN3CCCCC3)C2=O)cc1`, the TGI in [1], in [2], in assay [3], in assay [4], in assay [5] and in assay [7] was above 100 µM each time. Also, the TGI in assay [8], in assay [10], in assay [11], in [12], in assay [18] and in [13] was above 100 µM in each case. In addition, the TGI in assay [15] and in assay [16] was above 100 µM throughout.
On to `COC(=O)c1c2c(cc3c1CC1(Cc4ccc(C(C)=O)cc4C1)C3)CCC2` (configuration not stated), for which the TGI in assay [1] is above 100 µM; in assay [2], above 100 µM; in assay [4] it was 28.5 µM; in assay [5], above 100 µM; in assay [6], above 100 µM; in [7], above 100 µM. Besides, the TGI in [8] is 80.7 µM; in assay [17], above 100 µM; in assay [9], above 100 µM; in assay [10] it was above 100 µM; in assay [11], above 100 µM; in assay [12], above 100 µM. The TGI in assay [18], in assay [13], in [15] and in assay [16] was above 100 µM each time.
For the compound `COC(=O)C(Cc1ccc(Oc2cc(CC(NC(=O)c3ccccc3)C(=O)OC)ccc2OC)cc1)NC(=O)c1ccccc1` (configuration not stated), the TGI was above 100 µM in [1]; above 100 µM in assay [2]; above 74 µM in assay [3]; 34 µM in assay [4]; 48.9 µM in assay [5]; 23.8 µM in assay [6]. For the same compound, the TGI in assay [7] is above 100 µM; in assay [8], 61.8 µM; in [17], above 60.2 µM; in assay [10], above 55 µM; in [11], above 100 µM; in [12], above 59.8 µM. Moreover, the TGI in assay [18] is above 87.3 µM; in [13] it was above 52.4 µM; in assay [14], above 100 µM; in assay [15] it was above 100 µM; in [16], 42.7 µM.
